Columns and labels:
[1] = target: T1, Human dopamine D2 receptor (Homo sapiens, UniProt P14416); assay: Agonistic/antagonistic activity in G protein dependent pathway (aequorin intracellular calcium luminescence), D2; format: cell-based; conditions: for Maximal activity on each receptor (%): D2: 10 μM dopamine = 100%; for inhibition at 0.1 µM / inhibition at 1 µM: against 10 μM endogenous ligand, read-out: Inhibitory activity on each receptor (%): D2
T1 construct: expressed in transfected cells; host or cells: CHO-K1 or HEK293 cells
T1 sequence (P14416 whole entry): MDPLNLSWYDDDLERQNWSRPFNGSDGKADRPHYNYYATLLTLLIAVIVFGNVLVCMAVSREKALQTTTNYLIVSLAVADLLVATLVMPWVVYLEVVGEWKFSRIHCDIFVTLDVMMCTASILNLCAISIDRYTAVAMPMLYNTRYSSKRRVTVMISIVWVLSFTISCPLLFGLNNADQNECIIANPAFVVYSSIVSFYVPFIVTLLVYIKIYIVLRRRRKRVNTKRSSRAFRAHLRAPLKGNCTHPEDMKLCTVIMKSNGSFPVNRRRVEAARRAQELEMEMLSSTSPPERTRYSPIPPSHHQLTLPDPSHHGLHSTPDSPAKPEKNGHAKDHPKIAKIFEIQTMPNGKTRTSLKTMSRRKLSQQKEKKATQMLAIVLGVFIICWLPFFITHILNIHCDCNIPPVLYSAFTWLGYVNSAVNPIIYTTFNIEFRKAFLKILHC
Description: (§1) Plasmids encoding each receptor, aequorin and Gα16 were prepared, and the plasmids were transfected into CHO cells (Chinese Hamster Ovary cells) or HEK293 cells (Human Embryonic Kidney 293 cells) to prepare expressing cell lines.
(§2) The agonistic or antagonistic activity of the present compound in the G protein dependent pathway was evaluated on the basis of intracellular calcium levels as follows. CHO-K1 or HEK293 cell lines transfected with D2, D4, α1A, or α2A receptor genes were seeded in a 384-well plate, and incubated in a CO2 incubator at 37° C. for 24 hours, and then a solution of the present compound in DMSO was added into cells preloaded with coelenterazine to measure the change in luminescent signals with a FDSS (Hamamatsu Photonics K.K.). […] The agonistic activity of the present compound was calculated according to the measured luminescent signals, as the maximal activity (Emax) of the present compound. On the other hand, the antagonistic activity of the present compound was calculated according to the luminescent signals in wells with 10 μM of an endogenous ligand alone defined as 100%, as the inhibitory activity of the present compound to an endogenous ligand. EC50 value was calculated as the concentration of the present compound required to achieve a 50% response, and IC50 was calculated as the concentration of the present compound required to achieve a 50% inhibition of the Emax of an endogenous ligand.

[2] = target: T2, human adrenergic α2A receptor (Homo sapiens, UniProt P08913); assay: Agonistic/antagonistic activity in G protein dependent pathway (aequorin intracellular calcium luminescence), α2A; format: cell-based; conditions: for Maximal activity on each receptor (%): α2A: 10 μM adrenaline = 100%; for inhibition at 0.1 µM / inhibition at 1 µM: against 10 μM endogenous ligand, read-out: Inhibitory activity on each receptor (%): α2A
T2 construct: expressed in transfected cells; host or cells: CHO-K1 or HEK293 cells
T2 sequence (P08913 1-465): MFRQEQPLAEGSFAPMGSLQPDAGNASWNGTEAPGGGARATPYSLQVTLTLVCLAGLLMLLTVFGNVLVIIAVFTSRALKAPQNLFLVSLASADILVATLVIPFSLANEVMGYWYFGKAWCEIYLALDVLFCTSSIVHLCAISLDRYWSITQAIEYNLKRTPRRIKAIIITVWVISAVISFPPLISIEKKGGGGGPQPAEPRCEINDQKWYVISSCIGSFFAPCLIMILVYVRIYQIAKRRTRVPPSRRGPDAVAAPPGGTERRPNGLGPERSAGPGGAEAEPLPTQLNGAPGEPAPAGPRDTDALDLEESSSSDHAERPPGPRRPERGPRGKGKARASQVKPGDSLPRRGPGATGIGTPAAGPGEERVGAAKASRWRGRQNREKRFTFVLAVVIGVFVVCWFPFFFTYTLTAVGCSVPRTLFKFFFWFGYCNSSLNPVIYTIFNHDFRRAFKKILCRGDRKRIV
Description: as §1, §2

[3] = PK study in rat (bioavailability); format: in vivo; conditions: plasma, oral vs intravenous administration
Description: In this study, the pharmacokinetics of the present compound can be evaluated. Specifically, a 7-week-old SD-type or WKY-type rat received the intravenous administration of a solution of the present compound in saline or the oral administration of a suspension of the present compound in carboxymethylcellulose or methylcellulose. Blood was collected from the rat at each time below.
Intravenous administration: 5 minutes, 15 minutes, 30 minutes, 1 hour, 2 hours, 4 hours, 6 hours, and 24 hours after administration
Oral administration: 15 minutes, 30 minutes, 1 hour, 2 hours, 4 hours, 6 hours, and 24 hours after administration
Plasma was collected from the blood, the levels of the present compound in the plasma were measured by a LC-MS method, and then the pharmacokinetic parameters were calculated on the basis of the level changes.

[4] = Brain penetration study in rat; format: in vivo; conditions: brain and plasma, unbound brain-to-plasma drug concentration ratio
Description: In this study, the brain penetration of the present compound can be evaluated. Specifically, a 7-week-old SD-type or WKY-type rat received the subcutaneous administration of a solution of the present compound in saline or the oral administration of a suspension of the present compound in methylcellulose. Plasma and brain were collected from the treated rat 0.5 hour, 1 hour or 2 hours after the administration, and then the levels of the present compound in the plasma and the brain were measured by a LC-MS method.
The protein binding ratios of the present compound to the plasma and the brain were measured by an equilibrium dialysis method.
The levels of the present compound in the plasma and the brain as well as the plasma and brain protein binding ratios are applied to the following formula, and thus Kp,uu,brain (Unbound brain-to-plasma drug concentration ratio) can be calculated. Kp,uu,brain=(level of the present compound in the brain×(100−brain protein binding ratio (%))/100)/(level of the present compound in the plasma×(100−plasma protein binding ratio (%))/100)

[5] = target: T3, Human dopamine D4 receptor (Homo sapiens, UniProt P21917); assay: G protein independent pathway: β-arrestin recruit ability (PathHunter β-galactosidase); format: cell-based; parameters: expressed in transfected cells; conditions: β-arrestin recruitment, 90 minutes; 10 μM dopamine = 100%
T3 sequence (P21917 1-419): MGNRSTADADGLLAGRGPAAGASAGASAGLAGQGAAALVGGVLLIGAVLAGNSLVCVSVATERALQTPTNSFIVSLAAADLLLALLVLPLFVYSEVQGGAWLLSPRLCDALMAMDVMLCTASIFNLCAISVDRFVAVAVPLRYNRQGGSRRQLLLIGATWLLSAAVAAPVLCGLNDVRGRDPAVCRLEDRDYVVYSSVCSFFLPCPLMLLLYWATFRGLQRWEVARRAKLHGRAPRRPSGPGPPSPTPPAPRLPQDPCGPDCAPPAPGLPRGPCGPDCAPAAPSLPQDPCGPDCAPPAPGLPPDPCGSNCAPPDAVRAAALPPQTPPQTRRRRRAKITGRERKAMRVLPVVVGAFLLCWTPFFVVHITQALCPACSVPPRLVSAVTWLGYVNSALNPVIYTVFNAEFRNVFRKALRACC
Description: The activation of the G protein independent pathway was evaluated on the basis of the recruit ability of β-arrestin as follows. Cell lines transfected with D4 receptor genes were seeded in a 384-well plate, and incubated in a CO2 incubator at 37° C. for 24 hours, a solution of the present compound in DMSO was added into the cells, and then the cells were left at 37° C. for 90 minutes. Buffer containing β-galactosidase reaction substance (PathHunter Cell Assay Buffer, DiscoverRx) was added thereto, and luminescent signals in the wells were measured with a FDSS (Hamamatsu Photonics K.K.). […] The maximal activity (Emax) of the present compound was calculated according to the measured luminescent signals. EC50 value was calculated as the concentration of the present compound required to achieve a 50 response.

[6] = target: T3, Human dopamine D4 receptor; assay: Agonistic/antagonistic activity in G protein dependent pathway (aequorin intracellular calcium luminescence), D4; format: cell-based; parameters: expressed in transfected cells; host or cells: CHO-K1 or HEK293 cells; conditions: for inhibition at 0.1 µM / inhibition at 1 µM: against 10 μM endogenous ligand, read-out: Inhibitory activity on each receptor (%): D4; for Emax at 0.1 µM / Emax at 1 µM: read-out: Maximal activity on each receptor (%): D4
Method in brief: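 CHO-K1 or HEK293 cells co-expressing receptor, aequorin and Gα16, seeded and grown 24 h at 37 °C, loaded with coelenterazine; compound in DMSO added and luminescence change recorded.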

Structure (SMILES) | Maximal activity on each receptor (%): D2 ([1]; 0.1 μM) | inhibition at 0.1 µM ([1]; 0.1 μM) | Maximal activity on each receptor (%): D2 ([1]; 1 μM) | inhibition at 1 µM ([1]; 1 μM) | Maximal activity on each receptor (%): α2A ([2]; 0.1 μM) | inhibition at 0.1 µM ([2]; 0.1 μM) | Maximal activity on each receptor (%): α2A ([2]; 1 μM) | inhibition at 1 µM ([2]; 1 μM) | bioavailability [3] | Kp uu [4] | Maximal activity on D4 receptor (%) [5] | inhibition at 0.1 µM [6] | inhibition at 1 µM [6] | Emax at 0.1 µM [6] | Emax at 1 µM [6]
Cc1ncc(CN2CCC(c3ccccn3)CC2)c(N)n1 [Example 5, 2-Methyl-5-[4-(pyridin-2-yl)piperidin-1-ylmethyl]pyrimidin-4-amine] | 0.19% | -1.7% | 1.1% | 9.9% | −0.17% | -7% | −0.04% | -1.7% | 16.8% | 1.97 | 11% | 78% | 90% | 59% | 74%
Cc1ncc(CN2CCC(c3cncc(F)c3)CC2)cn1 [Example 33, 5-[4-(5-Fluoropyridin-3-yl)piperidin-1-ylmethyl]-2-methylpyrimidine] | 0.29% | -5.3% | 1.7% | 1.2% | −0.1% | 0.91% | −0.12% | 7.8% | 60.1% | 0.44 | 21% | 76% | 98% | 28% | 51%
Nc1ncc(CN2CCC(c3cccnc3)CC2)cn1 [Example 37] | 5.4% | 14% | 18% | 47% | −0.17% | 7.9% | −0.27% | 0.24% | 81.7% | 5.51 | 9% | 64% | 77% | 18% | 40%
